Experimental data: US20150105252A1, “SUBSTITUTED PYRAZOLES AS HERBICIDES” (E I DU PONT DE NEMOURS AND COMPANY, priority 2013, published 2015)

Tests used:
morningglory [1] = test: Test A preemergence; format: in vivo, Ipomoea spp.; conditions: preemergence, 125 g ai/ha, visual injury approx. 10 days after treatment
Method in brief: (§1)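 Greenhouse test in loam soil/sand blend; compounds formulated in non-phytotoxic solvent with surfactant, applied as preemergence directed soil spray or postemergence to plants 2–10 cm tall at one- to two-leaf stage. Injury rated visually versus untreated controls after approximately 10 days on a 0 (no effect) to 100 (complete control) scale.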

wheat = test: Test A preemergence; format: in vivo, Triticum aestivum; conditions: preemergence, 125 g ai/ha, visual injury approx. 10 days after treatment
Method in brief: as §1

corn = test: Test A preemergence; format: in vivo, Zea mays; conditions: preemergence; for Corn plant response rating (0 to 100 scale): 125 g ai/ha, visual injury approx. 10 days after treatment; for Corn plant response rating: 500 g ai/ha, visual injury after approx. 10 days, 0 to 100 scale (0 no effect, 100 complete control)
Method in brief: as §1

blackgrass [2] = test: Test C preemergence; format: in vivo, Alopecurus myosuroides; conditions: preemergence; for Plant response rating, Blackgrass: 125 g ai/ha, scale 0 to 100, 0 = no effect, 100 = complete control
Method in brief: (§2)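 Seeds were sown in a loam soil–sand blend and sprayed preemergence with compounds formulated in a non-phytotoxic solvent mixture containing surfactant. Postemergence plants, grown in peat/vermiculite medium to 2–18 cm (1- to 4-leaf stage), received the same formulation. After 13 to 15 days in a greenhouse, injury was rated visually against controls (0 = no effect, 100 = complete control).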

ryegrass, Italian = test: Test C preemergence; format: in vivo, Lolium multiflorum
Method in brief: as §2

johnsongrass = test: Test C preemergence; format: in vivo, Sorghum halepense
Method in brief: as §2

morningglory [3] = test: Test C preemergence; format: in vivo, Ipomoea coccinea
Method in brief: as §2

pigweed [4] = test: Test C preemergence; format: in vivo, Amaranthus retroflexus
Method in brief: as §2

barnyardgrass = test: Test C preemergence; format: in vivo, Echinochloa crus-galli; conditions: preemergence; for Plant response rating, Barnyardgrass: 125 g ai/ha, scale 0 to 100, 0 = no effect, 100 = complete control
Method in brief: as §2

blackgrass [5] = test: Test C postemergence; format: in vivo, Alopecurus myosuroides; conditions: for Plant response rating (scale of 0 to 100 where 0 is no effect and 100 is complete control), Blackgrass: Postemergence, 31 g ai/ha, visually evaluated after 13 to 15 days; for Blackgrass plant response rating / Plant response rating, Blackgrass: postemergence; for Blackgrass plant response rating: 62 g ai/ha, scale 0 to 100
Method in brief: as §2

morningglory [6] = test: Test C postemergence; format: in vivo, Ipomoea coccinea; conditions: for Plant response rating (scale of 0 to 100 where 0 is no effect and 100 is complete control), Morningglory: Postemergence, 31 g ai/ha, visually evaluated after 13 to 15 days; for Morningglory plant response rating / Plant response rating, Morningglory: postemergence; for Morningglory plant response rating: 62 g ai/ha, scale 0 to 100
Method in brief: as §2

pigweed [7] = test: Test C postemergence; format: in vivo, Amaranthus retroflexus; conditions: postemergence; for Pigweed plant response rating: 62 g ai/ha, scale 0 to 100
Method in brief: as §2

ragweed = test: Test C postemergence; format: in vivo, Ambrosia elation; conditions: postemergence
Method in brief: as §2

[8] = 31 g ai/ha, visual rating, scale 0 to 100 (0 no effect, 100 complete control), 13 to 15 days
[9] = 62 g ai/ha, scale 0 to 100 (0 no effect, 100 complete control), 13 to 15 days
[10] = 250 g ai/ha, scale 0 to 100, 0 is no effect, 100 is complete control
[11] = preemergence, 31 g ai/ha, visual rating, scale 0 to 100 (0 no effect, 100 complete control), 13 to 15 days
[12] = preemergence, 62 g ai/ha, scale 0 to 100 (0 no effect, 100 complete control), 13 to 15 days
[13] = preemergence, 125 g ai/ha, 13 to 15 days, scale 0 to 100, 0 = no effect, 100 = complete control
[14] = preemergence, 250 g ai/ha, scale 0 to 100, 0 is no effect, 100 is complete control
[15] = 250 g ai/ha, scale 0 to 100 (0 no effect, 100 complete control)
[16] = 125 g ai/ha, scale 0 to 100, 0 no effect, 100 complete control
[17] = Preemergence, rate head not shown (block before 16 g ai/ha), scale 0 to 100

Compound: CCc1cc(C(=O)NCC(F)(F)F)nn1Cc1ccnc(SC(F)(F)F)c1 [Compound 214]
- Morningglory plant response rating (0 to 100 scale) (morningglory [1]): 80
- Wheat plant response rating (0 to 100 scale) (wheat): 80
- Corn plant response rating (0 to 100 scale) (corn): 10
- Corn plant response rating (corn): 90
- Blackgrass plant response rating (blackgrass [2]; [8]): 85
- Blackgrass plant response rating (blackgrass [2]; [9]): 40
- Plant response rating, Blackgrass (blackgrass [2]; 13 to 15 days): 90
- Blackgrass plant response rating (blackgrass [2]; [10]): 90
- Ryegrass, Italian plant response rating (ryegrass, Italian; [11]): 5
- Ryegrass, Italian plant response rating (ryegrass, Italian; [12]): 30
- Plant response rating, Ryegrass, Italian (ryegrass, Italian; [13]): 70
- Ryegrass, Italian plant response rating (ryegrass, Italian; [14]): 80
- Johnsongrass plant response rating (johnsongrass; [11]): 0
- Johnsongrass plant response rating (johnsongrass; [12]): 40
- Plant response rating, Johnsongrass (johnsongrass; [13]): 75
- Johnsongrass plant response rating (johnsongrass; [14]): 90
- Morningglory plant response rating (morningglory [3]; [11]): 25
- Morningglory plant response rating (morningglory [3]; [12]): 98
- Plant response rating, Morningglory (morningglory [3]; [13]): 100
- Morningglory plant response rating (morningglory [3]; [14]): 100
- Pigweed plant response rating (pigweed [4]; [11]): 100
- Pigweed plant response rating (pigweed [4]; [12]): 100
- Plant response rating, Pigweed (pigweed [4]; [13]): 100
- Pigweed plant response rating (pigweed [4]; [14]): 100
- Barnyardgrass plant response rating (barnyardgrass; [8]): 40
- Barnyardgrass plant response rating (barnyardgrass; [9]): 95
- Plant response rating, Barnyardgrass (barnyardgrass; 13 to 15 days): 100
- Barnyardgrass plant response rating (barnyardgrass; [10]): 100
- Plant response rating (scale of 0 to 100 where 0 is no effect and 100 is complete control), Blackgrass (blackgrass [5]): 5
- Blackgrass plant response rating (blackgrass [5]): 5
- Plant response rating, Blackgrass (blackgrass [5]; [15]): 50
- Plant response rating, Blackgrass (blackgrass [5]; [16]): 10
- Plant response rating (scale of 0 to 100 where 0 is no effect and 100 is complete control), Morningglory (morningglory [6]): 75
- Morningglory plant response rating (morningglory [6]): 95
- Plant response rating, Morningglory (morningglory [6]; [15]): 85
- Plant response rating, Morningglory (morningglory [6]; [16]): 85
- Pigweed plant response rating (pigweed [7]): 60
- Plant response rating, Pigweed (pigweed [7]; [15]): 85
- Plant response rating, Pigweed (pigweed [7]; [16]): 75
- Plant response rating, Ragweed (ragweed; [15]): 70
- Plant response rating, Ragweed (ragweed; [16]): 35

Compound: CCc1cc(C(=O)NCC(F)(F)F)nn1Cc1ccnc(Br)c1 [Compound 224]
- Morningglory plant response rating (0 to 100 scale) (morningglory [1]): 30
- Wheat plant response rating (0 to 100 scale) (wheat): 30
- Corn plant response rating (0 to 100 scale) (corn): 30
- Corn plant response rating (corn): 90
- Blackgrass plant response rating (blackgrass [2]; [8]): 80
- Blackgrass plant response rating (blackgrass [2]; [9]): 100
- Plant response rating, Blackgrass (blackgrass [2]; 13 to 15 days): 80
- Blackgrass plant response rating (blackgrass [2]; [10]): 90
- Plant response rating, Ryegrass, Italian (ryegrass, Italian; [17]): 10
- Ryegrass, Italian plant response rating (ryegrass, Italian; [12]): 60
- Plant response rating, Ryegrass, Italian (ryegrass, Italian; [13]): 50
- Ryegrass, Italian plant response rating (ryegrass, Italian; [14]): 30
- Plant response rating, Johnsongrass (johnsongrass; [17]): 15
- Johnsongrass plant response rating (johnsongrass; [12]): 50
- Plant response rating, Johnsongrass (johnsongrass; [13]): 60
- Johnsongrass plant response rating (johnsongrass; [14]): 98
- Plant response rating, Morningglory (morningglory [3]; [17]): 5
- Morningglory plant response rating (morningglory [3]; [12]): 10
- Plant response rating, Morningglory (morningglory [3]; [13]): 40
- Morningglory plant response rating (morningglory [3]; [14]): 100
- Plant response rating, Pigweed (pigweed [4]; [17]): 100
- Pigweed plant response rating (pigweed [4]; [12]): 100
- Plant response rating, Pigweed (pigweed [4]; [13]): 100
- Pigweed plant response rating (pigweed [4]; [14]): 100
- Barnyardgrass plant response rating (barnyardgrass; [8]): 25
- Barnyardgrass plant response rating (barnyardgrass; [9]): 40
- Plant response rating, Barnyardgrass (barnyardgrass; 13 to 15 days): 100
- Barnyardgrass plant response rating (barnyardgrass; [10]): 100
- Plant response rating (scale of 0 to 100 where 0 is no effect and 100 is complete control), Blackgrass (blackgrass [5]): 5
- Blackgrass plant response rating (blackgrass [5]): 5
- Plant response rating, Blackgrass (blackgrass [5]; [15]): 20
- Plant response rating, Blackgrass (blackgrass [5]; [16]): 5
- Plant response rating (scale of 0 to 100 where 0 is no effect and 100 is complete control), Morningglory (morningglory [6]): 25
- Morningglory plant response rating (morningglory [6]): 20
- Plant response rating, Morningglory (morningglory [6]; [15]): 65
- Plant response rating, Morningglory (morningglory [6]; [16]): 25
- Pigweed plant response rating (pigweed [7]): 50
- Plant response rating, Pigweed (pigweed [7]; [15]): 75
- Plant response rating, Pigweed (pigweed [7]; [16]): 50
- Plant response rating, Ragweed (ragweed; [15]): 35
- Plant response rating, Ragweed (ragweed; [16]): 10
